This passage reports binding results from PMC5566834 (2017).

The assay deals with Rd 13 (DNA, aptamer) CGGGGGGAGGCGGAGGGAGGACTGGGGCTTCATTGACGTTCTTCACAGTAGGGGTAAGGGCTTAGGTGGTTGGTGCCTG
As to the kind of experiment: competitive fluorescence anisotropy. As to conditions: 140 mM Na+, 2 mM K+, 5 mM Mg2+, 2 mM Ca2+; 20 mM Tris pH 7.4; PosBD displaced; 1,000 pmol drug in 125 μl; less than posaconazole. (In general: Fluorescence polarisation rises when a labelled molecule tumbles more slowly, as on binding a larger partner.)

For `OC(Cn1cncn1)(Cn1cncn1)c1ccc(F)cc1F`, the binding result is listed as “weak”.
